According to patent US6291194A, “Assay for determination of androgenic or anti-androgenic activity of a serum sample or a test compound” (priority 2000, dated 2001):

Columns and labels:
androgen receptor (AR) = target: T1, androgen receptor (AR) (Homo sapiens, UniProt P10275); assay: COS-1 bioassay, inhibition by nonsteroidal antiandrogens of testosterone-induced AR LBD / N-terminal interaction; type: cell-based
T1 construct: The LBD of human AR (containing amino acids 657-919); expressed in transfected cells; host or cells: COS-1 cells (ATCC CRL1650)
T1 sequence (P10275 with tags, fused parts or gaps limits assumed): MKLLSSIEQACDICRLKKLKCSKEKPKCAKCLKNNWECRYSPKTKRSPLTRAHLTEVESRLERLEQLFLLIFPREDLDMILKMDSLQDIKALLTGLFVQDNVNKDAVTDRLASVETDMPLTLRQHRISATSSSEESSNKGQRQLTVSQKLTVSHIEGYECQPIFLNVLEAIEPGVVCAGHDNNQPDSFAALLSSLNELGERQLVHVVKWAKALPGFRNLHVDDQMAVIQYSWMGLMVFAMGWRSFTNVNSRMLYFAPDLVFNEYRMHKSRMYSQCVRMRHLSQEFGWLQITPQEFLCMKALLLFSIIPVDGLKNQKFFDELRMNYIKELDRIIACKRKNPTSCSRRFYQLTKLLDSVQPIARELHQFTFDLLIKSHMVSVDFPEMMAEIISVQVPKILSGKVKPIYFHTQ

[1] = cited from earlier work

Row | SMILES | effect on interaction between AR termini / relative luciferase activity (in words) (androgen receptor (AR)) | relative luciferase activity as % of activity with testosterone-containing FCS without antiandrogen (androgen receptor (AR); 100 times molar amount of testosterone (10 nmol/L testosterone in FCS)) | free fraction of total testosterone in serum [1]
1 | CC(C)(O)C(=O)Nc1ccc([N+](=O)[O-])c(C(F)(F)F)c1 [hydroxyflutamide, 4-hydroxy-α,α,α-trifluoro-2-methyl-4'-nitro-m-propionotoluidide] | suppressed relative luciferase activity | ~ 5% | 
2 | C[C@]12CC[C@H]3[C@@H](CCC4=CC(=O)CC[C@@]43C)[C@@H]1CC[C@@H]2O [testosterone, Testosterone] |  |  | 2-3%
